Legend:
Type in all cases: functional
[1] = tested on: OVCAR-5; assay: Cytotoxicity against human OVCAR5 cells assessed as cell growth at 1 uM after 1 to 11 days by MTT assay; conditions: read-out: Activity
[2] = tested on: MCF7; assay: Cytotoxicity against human MCF7 cells assessed as cell growth at 1 uM after 1 to 11 days by MTT assay; conditions: read-out: Activity
[3] = tested on: M14; assay: Cytotoxicity against human M14 cells assessed as cell growth at 10 uM after 1 to 11 days by MTT assay; conditions: read-out: Activity
[4] = tested on: SK-MEL-5; assay: Cytotoxicity against human SK-MEL-5 cells assessed as cell growth at 10 uM after 1 to 11 days by MTT assay; conditions: read-out: Activity
[5] = tested on: IGROV-1; assay: Cytotoxicity against human IGROV1 cells assessed as cell growth at 10 uM after 1 to 11 days by MTT assay; conditions: read-out: Activity
[6] = tested on: OVCAR-8; assay: Cytotoxicity against human OVCAR8 cells assessed as cell growth at 10 uM after 1 to 11 days by MTT assay; conditions: read-out: Activity
[7] = tested on: ACHN; assay: Cytotoxicity against human ACHN cells assessed as cell growth at 10 uM after 1 to 11 days by MTT assay; conditions: read-out: Activity
[8] = tested on: RXF 393; assay: Cytotoxicity against human […] cells assessed as cell growth at 10 uM after 1 to 11 days by MTT assay; conditions: read-out: Activity
[9] = tested on: K562; assay: Cytotoxicity against human K562 cells assessed as cell growth at 10 uM after 1 to 11 days by MTT assay; conditions: read-out: Activity
[10] = tested on: NCI-H23; assay: Cytotoxicity against human NCI-H23 cells assessed as cell growth at 10 uM after 1 to 11 days by MTT assay; conditions: read-out: Activity
[11] = tested on: NCI-H522; assay: Cytotoxicity against human NCI-H522 cells assessed as cell growth at 10 uM after 1 to 11 days by MTT assay; conditions: read-out: Activity
[12] = tested on: KM12; assay: Cytotoxicity against human KM12 cells assessed as cell growth at 10 uM after 1 to 11 days by MTT assay; conditions: read-out: Activity
[13] = tested on: SNB-19; assay: Cytotoxicity against human SNB19 cells assessed as cell growth at 10 uM after 1 to 11 days by MTT assay; conditions: read-out: Activity
[14] = tested on: LOX IMVI; assay: Cytotoxicity against human LOXIMVI cells assessed as cell growth at 100 uM after 1 to 11 days by MTT assay; conditions: read-out: Activity
[15] = tested on: UACC-62; assay: Cytotoxicity against human UACC62 cells assessed as cell growth at 100 uM after 1 to 11 days by MTT assay; conditions: read-out: Activity
[16] = tested on: A549; assay: Cytotoxicity against human A549 cells assessed as cell growth at 100 uM after 1 to 11 days by MTT assay; conditions: read-out: Activity
[17] = tested on: NCI-H23; assay: Cytotoxicity against human NCI-H23 cells assessed as cell growth at 100 uM after 1 to 11 days by MTT assay; conditions: read-out: Activity
[18] = tested on: KM12; assay: Cytotoxicity against human KM12 cells assessed as cell growth at 100 uM after 1 to 11 days by MTT assay; conditions: read-out: Activity
[19] = tested on: RXF 393; assay: Cytotoxicity against human […] cells assessed as cell growth at 100 uM after 1 to 11 days by MTT assay; conditions: read-out: Activity
[20] = tested on: TK-10; assay: Cytotoxicity against human TK10 cells assessed as cell growth at 100 uM after 1 to 11 days by MTT assay; conditions: read-out: Activity
[21] = tested on: K562; assay: Cytotoxicity against human K562 cells assessed as cell growth at 1 mM after 1 to 11 days by MTT assay; conditions: read-out: Activity
[22] = tested on: MOLT-4; assay: Cytotoxicity against human MOLT4 cells assessed as cell growth at 1 mM after 1 to 11 days by MTT assay; conditions: read-out: Activity
[23] = tested on: HCT-116; assay: Cytotoxicity against human HCT116 cells assessed as cell growth at 1 mM after 1 to 11 days by MTT assay; conditions: read-out: Activity
[24] = tested on: SF-268; assay: Cytotoxicity against human SF268 cells assessed as cell growth at 1 mM after 1 to 11 days by MTT assay; conditions: read-out: Activity
[25] = tested on: HCC 2998; assay: Cytotoxicity against human HCC2998 cells after 1 to 11 days by MTT assay
[26] = tested on: HCT-116; assay: Cytotoxicity against human HCT116 cells after 1 to 11 days by MTT assay
[27] = tested on: HCT-15; assay: Cytotoxicity against human HCT15 cells after 1 to 11 days by MTT assay
[28] = tested on: KM12; assay: Cytotoxicity against human KM12 cells after 1 to 11 days by MTT assay
[29] = tested on: SF-268; assay: Cytotoxicity against human SF268 cells after 1 to 11 days by MTT assay
[30] = tested on: U-251; assay: Cytotoxicity against human U251 cells assessed as cell growth at 1 mM after 1 to 11 days by MTT assay; conditions: read-out: Activity
[31] = tested on: TK-10; assay: Cytotoxicity against human TK10 cells assessed as cell growth at 1 mM after 1 to 11 days by MTT assay; conditions: read-out: Activity
[32] = tested on: BT-549; assay: Cytotoxicity against human BT549 cells assessed as cell growth at 1 mM after 1 to 11 days by MTT assay; conditions: read-out: Activity
[33] = tested on: OVCAR-4; assay: Cytotoxicity against human OVCAR4 cells after 1 to 11 days by MTT assay
[34] = tested on: OVCAR-8; assay: Cytotoxicity against human OVCAR8 cells after 1 to 11 days by MTT assay
[35] = tested on: DU-145; assay: Cytotoxicity against human DU145 cells after 1 to 11 days by MTT assay
[36] = tested on: SF-539; assay: Cytotoxicity against human SF539 cells assessed as cell growth at 0.1 uM after 1 to 11 days by MTT assay; conditions: read-out: Activity
[37] = tested on: UACC-257; assay: Cytotoxicity against human UACC257 cells assessed as cell growth at 0.1 uM after 1 to 11 days by MTT assay; conditions: read-out: Activity
[38] = tested on: NCI-H226; assay: Cytotoxicity against human NCI-H226 cells assessed as cell growth at 0.1 uM after 1 to 11 days by MTT assay; conditions: read-out: Activity
[39] = tested on: COLO 205; assay: Cytotoxicity against human COLO205 cells assessed as cell growth at 0.1 uM after 1 to 11 days by MTT assay; conditions: read-out: Activity
[40] = tested on: SW-620; assay: Cytotoxicity against human SW620 cells assessed as cell growth at 0.1 uM after 1 to 11 days by MTT assay; conditions: read-out: Activity
[41] = Cytotoxicity against human Hs 578T cells assessed as cell growth at 0.1 uM after 1 to 11 days by MTT assay; conditions: read-out: Activity
[42] = tested on: RPMI-8226; assay: Cytotoxicity against human RPMI8226 cells assessed as cell growth at 1 uM after 1 to 11 days by MTT assay; conditions: read-out: Activity
[43] = tested on: U-251; assay: Cytotoxicity against human U251 cells assessed as cell growth at 1 uM after 1 to 11 days by MTT assay; conditions: read-out: Activity
[44] = tested on: LOX IMVI; assay: Cytotoxicity against human LOXIMVI cells assessed as cell growth at 1 uM after 1 to 11 days by MTT assay; conditions: read-out: Activity
[45] = read-out: LC50 (the source's name)

Compound `O=C1Nc2ncccc2/C1=C1/Nc2ccccc2/C1=N\O` has a growth at 1 µM [1] of 89%, a growth at 1 µM [2] of 91% and a growth at 10 µM [3] of 86%. The growth at 10 µM [4] was 94%, the growth at 10 µM [5] was 60% and the growth at 10 µM [6] was 84%. The growth at 10 µM [7] was 72%, the growth at 10 µM [8] was 55% and the growth at 10 µM [9] was 66%. The growth at 10 µM [10] was 83%, the growth at 10 µM [11] was 99% and the growth at 10 µM [12] was 45%. The growth at 10 µM [13] was 94%, the growth at 100 µM [14] was 36% and the growth at 100 µM [15] was 27%. It also gave a growth at 100 µM [16] of 15%, a growth at 100 µM [17] of 55% and a growth at 100 µM [18] of 6%. The growth at 100 µM [19] was -9%, the growth at 100 µM [20] was 49% and the growth at 1000 µM [21] was 25%. The growth at 1000 µM [22] was 18%, the growth at 1000 µM [23] was 50% and the growth at 1000 µM [24] was 54%. For the same compound, the GI50 [25] was 5.96 µM, the TGI [25] was > 100 µM and the CC50 [25, 45] was > 100 µM. The TGI [26] was > 100 µM, the CC50 [26, 45] was > 100 µM and the GI50 [27] was 3.67 µM. For the same compound, the TGI [27] was > 100 µM, the CC50 [27, 45] was > 100 µM and the GI50 [28] was 0.77 µM. For the same compound, the TGI [28] was > 100 µM, the CC50 [28, 45] was > 100 µM and the GI50 [29] was > 100 µM. For the same compound, the TGI [29] was > 100 µM, the CC50 [29, 45] was > 100 µM and the growth at 1000 µM [30] was 68%. For the same compound, the growth at 1000 µM [31] was 14%, the growth at 1000 µM [32] was 30% and the GI50 [33] was 9.1 µM. For the same compound, the TGI [33] was > 100 µM, the CC50 [33, 45] was > 100 µM and the GI50 [34] was > 100 µM. For the same compound, the TGI [34] was > 100 µM, the CC50 [34, 45] was > 100 µM and the GI50 [35] was 5.69 µM. For the same compound, the TGI [35] was > 100 µM, the CC50 [35, 45] was > 100 µM and the growth at 0.1 µM [36] was 89%. The growth at 0.1 µM [37] was 98%, the growth at 0.1 µM [38] was 86% and the growth at 0.1 µM [39] was 96%. It also gave a growth at 0.1 µM [40] of 99%, a growth at 0.1 µM [41] of 97% and a growth at 1 µM [42] of 80%. It also gave a growth at 1 µM [43] of 97% and a growth at 1 µM [44] of 97%.

Source: ChEMBL document CHEMBL1154822, “Synthesis and antiproliferative activity of 7-azaindirubin-3'-oxime, a 7-aza isostere of the natural indirubin pharmacophore” (J Nat Prod, 2009)
